Measured values from US20020188122A1, “Novel compounds” (SmithKline Beecham Corporation, priority 1993, published 2002).

Tests used:
[1] = system: human PGHS-2 protein expression; assay: Prostoglandin endoperoxide synthase-2 (PGHS-2) assay, protein expression in LPS stimulated human monocytes; format: cell-based
Experimental: The followiong assay describes a method for determining the inhibitory effects of compounds of Formula (I) on human PGHS-2 protein expression in LPS stimulated human monocytes
Human peripheal blood monocytes were isolated from buffy coats by centrifugation through Ficoll and Percoll gradients. Cells were seeded at 2×10^6/well in 24 well plates and allowed to adhere for 1 hour in RPMI supplemented with 1% human AB serum, 20 mM L-glutamine, Penicillin-Streptomycin and 10 mM HEPES. Compounds were added at various concentrations and incubated at 37° C. for 10 minutes. LPS was added at 50 ng/well (to induce enzyme expression) and incubated overnight at 37° C. The supernatant was removed and cells washed once in cold PBS. The cells were lysed in 100 μl of cold lysis buffer(50 mM Tris/HCl pH 7.5, 150 mM NaCl, 1% NP40, 0.5% sodium deoxycholate, 0.1% SDS, 300 ug/ml DNAse, 0.1% TRITON X-100, 1 mM PMSF, 1 mM leupeptin, 1 mM pepstatin). The lysate was centrifuged (10,000× g for 10 min. at 4° C.) to remove debris and the soluble fraction was subjected to SDS PAGE. analysis (12% gel). Protein separated on the gel were transferred onto nitrocellulose membrane by electrophoretic means for 2 hours at 60 volts. The membrane was pretreated for one hour in PBS/0.1% Tween 20 with 5% non-fat dry milk. […]

Structure (SMILES) | melting point | further results
C[C@@H]1C[C@H]2[C@@H]3CCC4=CC(=O)C=C[C@]4(C)[C@@]3(F)[C@@H](O)C[C@]2(C)[C@@]1(O)C(=O)CO [Dexamethasone] | – | inhibition of LPS induced PGHS-2 protein expression ([1]; rank order potency similar to that for inhibiting cytokine production): active
Nc1nccc(-c2c(-c3ccc(F)cc3)ncn2C2CCSCC2)n1 [Example 91, 5-(2-Amino-4-pyrimidinyl)-4-(4-fluorophenyl)-1-(tetrahydro-4-thiopyranyl)imidazole] | 228 to 230 °C | –
CC(Cc1ccc(O)c(O)c1)C(C)Cc1ccc(O)c(O)c1 (stereo not shown) [NDGA] | – | inhibition of LPS induced PGHS-2 protein expression ([1]; up to 10 uM): inactive
CNc1nccc(-c2c(-c3ccc(F)cc3)ncn2CCC#N)n1 [Example 93, 5-(2-Methylamino-4-pyrimidinyl)-4-(4-fluorophenyl)-1-(2-cyanoethyl)imidazole] | 193 to 194 °C | –
